{"source": "paper PMC7367283", "about": "“A PIP2 substitute mediates voltage sensor-pore coupling in KCNQ activation” (Communications Biology, 2020)", "assay_in_all_cases": "Two-electrode voltage clamp of mutant KCNQ1 in Xenopus oocytes", "assay_type_in_all_cases": "cell-based", "key": {"KCNQ1 R243A": {"target": "KCNQ1 R243A (Homo sapiens, UniProt P51787, R243A)", "details": "10 µM CP1, individual oocytes", "text": "(§1) In a previous study, mutation of residues in the predicted PIP2-binding site reduced KCNQ1 currents. CP1 modifies voltage-dependent activation of KCNQ1 channels by shifting the voltage dependence of channel opening, measured as the voltage dependence of the conductance (G–V) relationship, to more negative voltages (Fig. 1c) among other characteristics (see below). We made mutations to the residues around the CP1-interacting pocket as indicated by molecular docking (Fig. 1b), and examined the effects of the mutations on the CP1-induced shift of the G–V relationship. The mutations of the KCNQ1 residues that interact with CP1 in docking simulations reduced the shift of the G–V relationship (Fig. 1c, d), supporting the interaction of these residues with CP1.\n(§2) Complementary DNA (cDNA) encoding human KCNQ1 (UniProtKB/Swiss‐Prot under accession no. P51787), KCNQ2 (O43526), KCNQ3 (O43525), KCNE1 (P15382), Kir1.1 (P48048), hERG (Q12809), KV4.2 (Q63881), NaV1.5 (Q14524), NaV β1 (Q07699), CaV1.2 (Q13936), CaV β1a (Q02641), CaV α2/δ1 (P54289), and HCN4 (Q9Y3Q4) were subcloned into oocyte expression vectors, respectively. Site-directed mutations of the KCNQ1 channel were all produced by overlap extension polymerase chain reaction (PCR) with high-fidelity Pfu polymerase (Stratagene, CA). The presence of the desired mutation was verified by sequencing the PCR-amplified regions. All the primer sequences used in this study are available in Supplementary Table 1. The complementary RNA (cRNA) of all these channels and mutations was transcribed in vitro with the T3, T7, or SP6 polymerase mMessage mMachine kit (Invitrogen, Thermo Fisher Scientific, MO).\n(§3) The use of Xenopus laevis to obtain oocytes was approved by the Washington University Animal Studies Committee (protocol #20190030). Oocytes were manually dispersed and digested with collagenase (0.5 mg/ml, Sigma-Aldrich, Saint Louis, MO) to remove the follicle cell layer. Stage V or VI oocytes were selected and injected with cRNAs (9.2 ng) of channel or mutations. Especially, to characterize IKs, a mix of cRNAs at a molar ratio 4:1 (KCNQ1:KCNE1) was injected. For KCNQ2/KCNQ3, the molar ratio was 1:1 (KCNQ2:KCNQ3). For sodium channels, a 3:1 molar ratio (β1:NaV1.5) and for calcium channels a weight ratio 1:1:1 (β1:α2/δ1:CaV1.2) was injected, respectively. Injected oocytes were incubated in ND96 solution containing (in mM) 96 NaCl, 2 KCl, 1.8 CaCl2, 1 MgCl2, and 5 HEPES, pH 7.6, supplemented with 2.5 mM Na pyruvate and 1% penicillin–streptomycin, at 18 °C for 3–7 days before recording.\n(§4) The whole-oocyte ionic currents were recorded with a GeneClamp 500B amplifier (Axon Instruments, CA) or iTEV90 amplifier (HEKA, Germany) and then sampled at 1 kHz and low-pass-filtered at 2 kHz. The Patchmaster software (HEKA, Germany) was used to acquire data. The Kir1.1 current was recorded with a high K^+ bath solution containing (in mM) 96 KCl, 4 NaCl, 1 CaCl2, 2 MgCl2, and 10 HEPES, pH 7.3–7.4. The HCN4 current was recorded in ND66 solution containing (in mM) 66 NaCl, 32 KCl, 1.8 CaCl2, 1 MgCl2, and 5 HEPES, pH 7.6. All the other potassium channels were recorded in ND96 solution. The currents of CaV1.2 channel were recorded in 40 mM Ba^2+ bath solution containing (in mM) 40 Ba(OH)2, 50 TEA-OH, 2 KOH, and 5 HEPES, adjusted to pH 7.4 with methanesulfonic acid. CP1 (DISODIUM 5-BROMO-2-[9-CHLORO-3-(SULFONATOOXY) NAPHTHO [1,2-B] THIEN-2-YL]-1H-INDOL-3-YL SULFATE, Sigma-Aldrich, MO) and Chromanol 293B (Sigma-Aldrich, MO) were dissolved in bath solutions. All the chemicals were purchased from Sigma-Aldrich. To measure the I–V relations of the Kir1.1 channel, the test voltage was set from −100 to +60 mV for 1 s with 20-mV increments. The test pulses were stepped from a holding potential of 0 mV and then stepped back to 0 mV. The HCN4 currents were recorded by a test pulse between −30 and −140 mV in 10-mV step from a holding potential of −30 mV. […]"}, "KCNQ1 R259A": {"target": "KCNQ1 R259A (Homo sapiens, UniProt P51787, R259A)", "details": "10 µM CP1, individual oocytes", "text": "as §1, §2, §3, §4"}, "KCNQ1 Q359A": {"target": "KCNQ1 Q359A (Homo sapiens, UniProt P51787, Q359A)", "details": "10 µM CP1, individual oocytes", "text": "as §1, §2, §3, §4"}, "KCNQ1 R243A/R249A": {"target": "KCNQ1 R243A/R249A (Homo sapiens, UniProt P51787, R243A/R249A)", "details": "10 µM CP1, individual oocytes", "text": "as §1, §2, §3, §4"}, "[1]": {"target": "KCNQ1 R249A/S253A/K354A/K358A (Homo sapiens, UniProt P51787, K354A/K358A/R249A/S253A)", "text": "as §1, §2, §3, §4"}, "KCNQ1 K358A": {"target": "KCNQ1 K358A (Homo sapiens, UniProt P51787, K358A)", "text": "as §1, §2, §3, §4"}}, "note": "Where “and” joins values, the source holds several entries; their conditions need not be identical. Equal values may be shown once."}
{"smiles": "O=S(=O)([O-])Oc1c(-c2sc3c(ccc4cccc(Cl)c43)c2OS(=O)(=O)[O-])[nH]c2ccc(Br)cc12.[Na+].[Na+]", "note": "[CP1, DISODIUM 5-BROMO-2-[9-CHLORO-3-(SULFONATOOXY) NAPHTHO [1,2-B] THIEN-2-YL]-1H-INDOL-3-YL SULFATE]", "values": [{"measurement": "∆V1/2", "setting": "KCNQ1 R243A", "result": "24.1172 mV and 49.8519 mV and 42.6967 mV and 36.2884 mV and 45.9483 mV and 47.7413 mV"}, {"measurement": "∆V1/2", "setting": "KCNQ1 R259A", "result": "40.9982 mV and 50.0211 mV and 57.3239 mV and 73.9485 mV"}, {"measurement": "∆V1/2", "setting": "KCNQ1 Q359A", "result": "92.2901 mV and 78.8586 mV and 79.8593 mV and 57.9843 mV"}, {"measurement": "∆V1/2", "setting": "KCNQ1 R243A/R249A", "result": "58.531 mV and 59.5008 mV and 36.2737 mV and 44.7577 mV"}, {"measurement": "G/Gmax", "setting": "[1]; 10 µM CP1, 0 mV", "result": 0.6125}, {"measurement": "G/Gmax", "setting": "[1]; 10 µM CP1, 10 mV", "result": 0.7412}, {"measurement": "G/Gmax", "setting": "[1]; 10 µM CP1, 20 mV", "result": 0.8671}, {"measurement": "G/Gmax", "setting": "[1]; 10 µM CP1, 30 mV", "result": 0.9470}, {"measurement": "G/Gmax", "setting": "[1]; 10 µM CP1, 40 mV", "result": 1.0000}, {"measurement": "G/Gmax", "setting": "[1]; 10 µM CP1, -10 mV", "result": 0.4658}, {"measurement": "G/Gmax", "setting": "[1]; 10 µM CP1, -20 mV", "result": 0.3584}, {"measurement": "G/Gmax", "setting": "[1]; 10 µM CP1, -30 mV", "result": 0.2410}, {"measurement": "G/Gmax", "setting": "[1]; 10 µM CP1, -40 mV", "result": 0.1854}, {"measurement": "G/Gmax", "setting": "[1]; 10 µM CP1, -50 mV", "result": 0.1254}, {"measurement": "G/Gmax", "setting": "[1]; 10 µM CP1, -60 mV", "result": 0.1039}, {"measurement": "G/Gmax", "setting": "[1]; 10 µM CP1, -70 mV", "result": 0.0777}, {"measurement": "G/Gmax", "setting": "[1]; 10 µM CP1, -80 mV", "result": 0.0665}, {"measurement": "G/Gmax", "setting": "[1]; 10 µM CP1, -90 mV", "result": 0.0440}, {"measurement": "G/Gmax", "setting": "[1]; 10 µM CP1, -100 mV", "result": 0.0354}, {"measurement": "G/Gmax", "setting": "[1]; 10 µM CP1, -110 mV", "result": 0.0175}, {"measurement": "G/Gmax", "setting": "[1]; 10 µM CP1, -120 mV", "result": 0.0015}, {"measurement": "∆V1/2", "setting": "[1]; 10 µM CP1, individual oocytes", "result": "21.6716 mV and 20.4143 mV and 21.6154 mV and 29.7699 mV"}, {"measurement": "G/Gmax", "setting": "KCNQ1 K358A; 10 µM CP1, 0 mV", "result": 0.9554}, {"measurement": "G/Gmax", "setting": "KCNQ1 K358A; 10 µM CP1, 10 mV", "result": 0.9870}, {"measurement": "G/Gmax", "setting": "KCNQ1 K358A; 10 µM CP1, 20 mV", "result": 1.0000}, {"measurement": "G/Gmax", "setting": "KCNQ1 K358A; 10 µM CP1, -10 mV", "result": 0.8985}, {"measurement": "G/Gmax", "setting": "KCNQ1 K358A; 10 µM CP1, -20 mV", "result": 0.8248}, {"measurement": "G/Gmax", "setting": "KCNQ1 K358A; 10 µM CP1, -30 mV", "result": 0.7348}, {"measurement": "G/Gmax", "setting": "KCNQ1 K358A; 10 µM CP1, -40 mV", "result": 0.6300}, {"measurement": "G/Gmax", "setting": "KCNQ1 K358A; 10 µM CP1, -50 mV", "result": 0.5260}, {"measurement": "G/Gmax", "setting": "KCNQ1 K358A; 10 µM CP1, -60 mV", "result": 0.4207}, {"measurement": "G/Gmax", "setting": "KCNQ1 K358A; 10 µM CP1, -70 mV", "result": 0.3286}, {"measurement": "G/Gmax", "setting": "KCNQ1 K358A; 10 µM CP1, -80 mV", "result": 0.2595}, {"measurement": "G/Gmax", "setting": "KCNQ1 K358A; 10 µM CP1, -90 mV", "result": 0.1953}, {"measurement": "G/Gmax", "setting": "KCNQ1 K358A; 10 µM CP1, -100 mV", "result": 0.1209}, {"measurement": "G/Gmax", "setting": "KCNQ1 K358A; 10 µM CP1, -110 mV", "result": 0.0580}, {"measurement": "G/Gmax", "setting": "KCNQ1 K358A; 10 µM CP1, -120 mV", "result": 0.0105}, {"measurement": "∆V1/2", "setting": "KCNQ1 K358A; 10 µM CP1, individual oocytes", "result": "15.3181 mV and 41.4752 mV and 28.1195 mV and 31.8534 mV and 36.2122 mV and 21.5083 mV and 28.8875 mV"}]}
